Data set [1] can be described thus: In vivo pharmacokinetic study after oral (intragastric) administration in rats. As to conditions: rat, oral solution, 1 mg/kg. The protocol:
Naked physostigmine solution (1 mg/kg) or physostigmine-loaded RG 502 microparticles suspension (10% drug loading) were fed intragastrically into the overnight-fasted rats (weight-280g) via a rigid dosing gavage needle into the posterior of the rat pharynx, directly into the stomach. Immediately before administration of the tablets and solutions, a 300 μL sample of blood was taken at what was t=0 hrs (pre-dose), through the exposed catheter. Subsequent samples were drawn from the catheter at intervals over a period of 48 hours after drug administration. After each withdrawal, an equal volume of 0.9% normal saline was injected back into the blood stream to minimize loss of body fluid. Water and food were available ad libitum in the metabolic cages. Each 300 μl volume of blood was collected in heparinised microcentrifuge tubes and centrifuged under 3000 g for 5 minutes at 4° C. to obtain the plasma. All plasma samples were stored at −70° C. in fresh heparinised microcentrifuge tubes. Physostigmine is extracted immediately from it prior to analysis by high performance liquid chromatography (HPLC) described by Zhao et al (2003) Journal of Chromatography B 784- 323-329). The WinNonlin® Version 3.2 (Pharsight Corporation, USA) was used to calculate the pharmacokinetic parameters based on the non-compartment model.

For data set [2] the following is noted: in vitro medium, 37° C., cited from earlier work.
For data set [3] the following is noted: K. Walter et al. (1995); cited from earlier work.

Structures are written as SMILES.

By Tmax is commonly meant the time at which the peak concentration occurs. One may read the half-life as the time needed for the level to fall by half in the phase considered.

`CNC(=O)Oc1ccc2c(c1)[C@]1(C)CCN(C)[C@@H]1N2C` [physostigmine, Physostigmine]: the Tmax in data set [1] (plasma) came out at 40.8 min. For the same compound, the AUC in data set [1] (plasma, read-out: AUC (hr*μg/mL), Mean) was 0.77 µg·h/mL. Further, the Cmax in data set [1] (plasma, read-out: Cmax (μg/mL), Mean) came to 0.57 µg/mL. Also, in data set [1] (plasma, read-out: Half life (hr), Mean (converted)), the half-life was 1.16 h. In data set [1], the “Cl (mL/hr/kg), Mean” value was 998.86 mL/h/kg and the “Vd (mL/kg), Mean” value was found to be 1584.37 mL/kg. In data set [2] (in 6 days), the physostigmine degraded result is listed as “about 40%”. Further, in data set [2], the physostigmine degradation rate is 7 % per day. Further, the elimination half-life in data set [3] is 12 to 40 min.

Source of the values: US20050013869A1, “Sustained release formulation for carbamates and a method therefor” (priority 2003, published 2005).
